Reference: patent US20080045510A1, “Succinate salts of 6-methoxy-8-[4-(1-(5-fluoro)-quinolin-8-yl-piperidin-4-yl)-piperazin-1-yl]-quinoline and crystalline forms thereof” (Wyeth, priority 2006, published 2008)

Assays:
[1] = solubility in aqueous media / water; format: physicochemical; conditions: even in the presence of surfactants
[2] = in vivo

SMILES: COc1cc(N2CCN(C3CCN(c4ccc(F)c5cccnc45)CC3)CC2)c2ncccc2c1.O=C(O)CCC(=O)O.O=C(O)CCC(=O)O.O=C(O)CCC(=O)O [Form A, 6-methoxy-8-[4-(1-(5-fluoro)-quinolin-8-yl-piperidin-4-yl)-piperazin-1-yl]-quinoline trisuccinate]
- hygroscopicity (believed): substantially non-hygroscopic
- conversion of crystalline form in water (upon dispersion in water for a few minutes in ambient conditions): convert to Form D

SMILES: COc1cc(N2CCN(C3CCN(c4ccc(F)c5cccnc45)CC3)CC2)c2ncccc2c1.O=C(O)CCC(=O)O.O=C(O)CCC(=O)O.O=C(O)CCC(=O)O [Form B, 6-methoxy-8-[4-(1-(5-fluoro)-quinolin-8-yl-piperidin-4-yl)-piperazin-1-yl]-quinoline trisuccinate]
- conversion of crystalline form in THF/heptane slurry (slurried for two hours in a mixture of THF and heptane in an ice/water bath): convert to Form A

SMILES: COc1cc(N2CCN(C3CCN(c4ccc(F)c5cccnc45)CC3)CC2)c2ncccc2c1 [free base, 6-methoxy-8-[4-(1-(5-fluoro)-quinolin-8-yl-piperidin-4-yl)-piperazin-1-yl]-quinoline]
- solubility [1]: ~0.4 µg/mL

SMILES: COc1cc(N2CCN(C3CCN(c4ccc(F)c5cccnc45)CC3)CC2)c2ncccc2c1.O=C(O)CCC(=O)O.O=C(O)CCC(=O)O.O=C(O)CCC(=O)O [trisuccinate salt, 6-methoxy-8-[4-(1-(5-fluoro)-quinolin-8-yl-piperidin-4-yl)-piperazin-1-yl]-quinoline trisuccinate]
- bioavailability [2]: improved bioavailability over the free base
